From PubChem BioAssay (NCI)
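Grown in 96-well plates, cells were treated for 48 hours with each compound at five concentrations. Insufficient inhibition: endpoint recorded as highest concentration tested. TGI denotes the concentration required for complete inhibition of growth.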

How the values were obtained:
Assay in all cases: DTP human tumour cell line panel, 48 h
DU-145 prostate = tested on: DU-145 prostate
HOP-92 NSCLC = tested on: HOP-92 NSCLC
MCF7 breast = tested on: MCF7 breast
MOLT-4 leukemia = tested on: MOLT-4 leukemia
NCI/ADR-RES ovarian = tested on: NCI/ADR-RES ovarian
OVCAR-3 ovarian = tested on: OVCAR-3 ovarian
OVCAR-8 ovarian = tested on: OVCAR-8 ovarian
SK-MEL-5 melanoma = tested on: SK-MEL-5 melanoma
UACC-257 melanoma = tested on: UACC-257 melanoma
BT-549 breast = tested on: BT-549 breast
NCI-H460 lung = tested on: NCI-H460 lung

SMILES	TGI (DU-145 prostate) [µM]	TGI (HOP-92 NSCLC) [µM]	TGI (MCF7 breast) [µM]	TGI (MOLT-4 leukemia) [µM]	TGI (NCI/ADR-RES ovarian) [µM]	TGI (OVCAR-3 ovarian) [µM]	TGI (OVCAR-8 ovarian) [µM]	TGI (SK-MEL-5 melanoma) [µM]	TGI (UACC-257 melanoma) [µM]	TGI (BT-549 breast) [µM]	TGI (NCI-H460 lung) [µM]
CCC(C)[C@@H](NCc1ccccc1)[C@H](OCc1ccccc1)[C@@H]1COC(C)(C)O1 (stereo partly specified)	68	31.4	44.4	62.3	55.3	> 100	45.4	29	38.1		
C1=C\SS/C=C\SS/C=C\SS/C=C\SS/1	> 100	> 100	> 100	> 100	> 100		> 100	> 100	> 100	> 100	68.3
O=C(O)CCCl		> 5000		> 5000			> 5000	> 5000	> 5000		> 5000
CCOC(=O)c1cnc(-n2[nH]c(C)c(CCO)c2=O)[nH]c1=O	> 100	> 100	> 100	> 100	> 100	> 100	> 100	> 100	> 100		> 100
O=C1C2CCCCC2C(=O)N1n1c(Cc2ccc(Cl)cc2)n[nH]c1=O (stereo unspecified)		> 100	> 100	> 100	> 100	> 100	> 100	> 100	> 100	> 100	> 100
C1CC2=C(C1)[Se]C(=C1Sc3nsnc3S1)[Se]2	> 100	> 100	> 100	> 100	> 100	> 100	> 100	> 100	> 100	> 100	> 100
CC(=O)NC1C(OCc2ccccc2)OC(CO)C(O)C1OCC(=O)NC(C)C(=O)NC(CCC(=O)NCCCCNc1ccc([N+](=O)[O-])c2[nH]c3ccccc3c(=O)c12)C(N)=O (stereo unspecified)	> 100	> 100	> 100		> 100	> 100	> 100			> 100	> 100
O=C(CP(c1ccccc1)c1ccccc1)c1cccc(C(=O)CP(c2ccccc2)c2ccccc2)c1	> 100		> 100	48	> 100		> 100	> 100	> 100		> 100
O=c1cc(CNC2CCCC2)[nH]c(=O)[nH]1	> 100		> 100	> 100	> 100	> 100	> 100	> 100	> 100	> 100	> 100
[O-]/[N+](=C\c1ccccc1)[C@H](COCc1ccccc1)c1ccccc1		92.7		> 100		> 100	> 100	> 100	> 100		> 100
CCC(C)[C@H](NC(=O)[C@H](Cc1ccccc1)NC(=O)N(CC)c1ccccc1)C(=O)N[C@@H](CC(C)C)C(=O)OC (stereo partly specified)	> 100	> 100	> 100	39.7	> 100	> 100	> 100	59.8	74.8	> 100	
COc1ccc(/C=C2\CN(C)Cc3c2nc(N)nc3-c2ccc(OC)cc2)cc1				> 100		> 100	> 100	> 100			> 100
O=C1CSC2(CC(/C=C/c3ccccc3)=NN2c2cccc(S(=O)(=O)O)c2)N1c1nc2ccccc2s1 (stereo unspecified)	54.4	77.3	45	91.5	> 100		35.8	> 100	> 100	52.8	> 100
O=C1C=CC2CCC1C2 (stereo unspecified)	> 100		> 100	> 100	> 100	> 100	> 100	> 100	> 100	73.3	> 100
Cc1nc2c(=S)[nH]ncc2[nH]1		> 100	> 100		> 100	> 100	> 100	> 100	> 100	> 100	
COc1c2c(c3c(c1C1OC(C)[C@@H](C)O1)CC(C)(C)O3)C(=O)c1ccccc1C2=O (stereo partly specified)		89.7				> 100	> 100	> 100	> 100		> 100
C=C1C(=O)OC2/C=C(\C)C(OC(C)=O)C3OC3C(C)(O)CC(OC(=O)/C(C)=C/C)C12 (stereo unspecified)		23.5		85.6		15.8	24.4	27.4	28.8		29.1
CN(C)c1nc2sc3c(c2c(=O)o1)CCCC3	> 100	> 100	> 100	> 100	> 100		> 100	> 100	> 100	65.5	> 100
CC1(C)O[C@H]2Cn3c(c(C#N)c4ccccc43)[C@H]2O1	> 100	> 100	> 100		> 100	> 100		> 100		> 100	> 100
c1csc(-c2ccc(-c3ccc(-c4ccc(-c5cccs5)s4)s3)s2)c1	> 100	> 100	> 100	> 100	> 100	> 100	> 100	> 100	> 100		> 100
COc1ccc(-c2nc(N)c(C#N)c3c2CCS(=O)(=O)c2ccc(C)cc2-3)cc1OC	> 100	> 100			> 100	> 100	> 100	> 100	> 100	> 100	> 100
O=C(O)[C@H]1[C@@H](C2CCCCC2)O[C@@H](C2CCCCC2)O[C@H]1C(F)(F)F	> 100	61.3		45	> 100	39	45.5	44.4	96.1	98.6	48.4
CO/C(=N\N=C\c1cc(OC)ccc1OC)c1ccncc1			> 10	> 10	> 10		> 10	> 10			> 10
O=S(=O)(c1ccc(Br)cc1)n1c2ccc(Br)cc2c2nc3ccccc3nc21	> 100	> 100		> 100	> 100	> 100	> 100	> 100	> 100	> 100	> 100

SMILES	TGI (DU-145 prostate) [µM]	TGI (HOP-92 NSCLC) [µM]	TGI (MCF7 breast) [µM]	TGI (MOLT-4 leukemia) [µM]	TGI (NCI/ADR-RES ovarian) [µM]	TGI (OVCAR-3 ovarian) [µM]	TGI (OVCAR-8 ovarian) [µM]	TGI (SK-MEL-5 melanoma) [µM]	TGI (UACC-257 melanoma) [µM]	TGI (BT-549 breast) [µM]	TGI (NCI-H460 lung) [µM]
Cc1ccc(S(=O)(=O)N/N=C/c2oc(-c3cccc([N+](=O)[O-])c3)c(-c3cccc([N+](=O)[O-])c3)c2[N+](=O)[O-])cc1	> 100	> 100		77.9		> 100	> 100	> 100	> 100		> 100
C[N+]1(C)CCCC1C(=O)[O-] (stereo unspecified)		> 100		> 100		> 100	> 100		> 100		> 100
C/C=C/[C@@]1(OC(=O)c2ccccc2)C[C@@H]2CCCC[C@@H]21	31.4		33.3	40.2	41.1		34.7	29.3	34.1	28.2	34.2
CCN(CC)CCNC(=O)c1ccccc1NC(=O)C(=O)Nc1ccccc1C(=O)NCCN(CC)CC		98.5		74.4		> 100	> 100	35.6	35.5		> 100
O=C(Cn1c(=O)oc2ccc(C(=O)c3ccc(F)cc3)cc21)c1ccc([N+](=O)[O-])cc1	> 100	> 100	> 100	> 100	> 100		> 100	34	> 100		> 100
CC[n+]1cnc(N)c2c(-c3ccc(Cl)cc3)cn(-c3ccc(C)cc3)c21	31.8	24.7	3.35	20.5	26.5	21.6	32.7	22	6.06		35.8
CCOC(=O)CCCn1nnc(C(=O)OCC)c1C(=O)OCC	> 100	> 100	> 100	> 100	> 100		> 100	> 100	> 100	> 100	> 100
Nc1nc(N)c2ncn(CC3CCC(CO)C3)c2n1 (stereo unspecified)	> 100	> 100	> 100	> 100	> 100	> 100		> 100	> 100		
CC12CC3C(CC1SCC(=O)O2)C3(C)C (stereo unspecified)		> 100		> 100		> 100	> 100	> 100	> 100		> 100
COC(=O)c1cn(CCCC(=O)O)nn1	> 100	> 100	> 100	> 100	> 100		> 100	> 100	> 100	> 100	> 100
O=C(CSc1nnc(-c2ccc(N=Cc3ccc(Cl)cc3)cc2)o1)Nc1ccccc1Cl				> 100			> 100	> 100	> 100		> 100
COCOc1ccc(C(=O)C(C)c2ccc(OCOC)cc2OCOC)c(O)c1 (stereo unspecified)	> 100	> 100	> 100	> 100			> 100	> 100	> 100	> 100	> 100
C1=C(c2ccccc2)CN(c2ccccc2)OC1				> 100		> 100					> 100
O=C1N[C@H]2c3c(Cl)sc(Cl)c3/C(=N/O)[C@H]2O1	> 100		> 100	> 100	> 100	> 100	> 100	> 100	> 100	> 100	> 100
CC1=NN(c2nc(N)nc(-c3ccccc3S(N)(=O)=O)n2)C(C)(C)C1	> 100	> 100	> 100	79.8	52.5	> 100	> 100	> 100	> 100		> 100
O=C(CSCC(=O)N/N=C/c1cc(I)cc(I)c1O)N/N=C/c1cc(I)cc(I)c1O	> 100	> 100	70.7	29.2	59.9	> 100	59.8	24.8	> 100		82
COc1ccc2oc(=N)c(C(=O)Nc3cccc4ccccc34)cc2c1	> 100		63.9		> 100	30.8		> 100	> 100	> 100	> 100
COc1cc(/C=C/C(=O)OCC23CC[C@@]4(C(=O)O)CCC(C)[C@H](C)C4C2=CCC2[C@@]4(C)CC[C@H](O)C(C)(C)C4CC[C@]23C)ccc1O (stereo partly specified)	23.2		48.1	76.2	44.9	14.3	35.7	32.9	39.4	50.6	27.6
Cc1[nH]c2ncn(/N=C/c3ccccc3O)c(=N)c2c1Cc1ccccc1	> 100	> 100	> 100	> 100	> 100	71.8	> 100		> 100	> 100	> 100
CNC(=O)c1ccccc1-[s+]1c2ccccc2c(=O)n1C (stereo unspecified)	> 100	> 100	> 100	> 100	> 100	> 100	> 100	> 100	> 100	> 100	
C1OCC2S[C@@H]3COCO[C@@H]3C2O1 (stereo partly specified)				> 100		> 100	> 100	> 100	> 100		> 100
CN(C)CC(/C(Cc1ccccc1)=N\NC(=O)C[n+]1ccccc1)c1ccccc1 (stereo unspecified)		> 100		> 100		> 100	> 100	> 100	> 100		> 100
COc1ccc(Cn2c(C)nc3c2C(=O)c2ccccc2C3=O)cc1				30		24	> 75	16.6	24.7		9.74
